Results taken from patent publication US12194095B2, “Combinations and uses thereof” (Incyte Corporation, priority 2015, dated 2025).
Entries after “also recorded” stand apart in the source; their conditions may differ.

System: MEC-1 cells
Assay: ADCC cytotoxicity (target cell killing) of MEC-1 cells with NK cells, MOR00208 and Idelalisib alone and in combination
Type: cell-based, human
Procedure: The cytotoxicity of MOR00208 and Idelalisib alone and in combination were tested in the MEC-1 cell line.
Idelalisib is a phosphoinositide 3-kinase inhibitor; more specifically, it blocks P110δ, the delta isoform of the enzyme phosphoinositide 3-kinase. […] MOR00208 targets CD19 and mediates target cell killing via ADCC.
The following were used as controls: a) MEC-1 cells+RefmAb33+DMSO+NK cells, b) MEC-1 cells+DMSO+NK cells, c) MEC-1 cells+DMSO.
Target cell killing was measured using the following parameters: Idelalisib at concentrations of 0.3, 1, 3 and 10 μM; MOR00208 at concentrations of 1.5, 0.015 and 0.0015 μg/ml and the combination of MOR00208 and Idelalisib at the same concentrations.
In the Idelalisib group, […] in the MOR00208+Idelalisib combination group, target cells were pre-treated with Idelalisib for 7 days prior to the ADCC assay measurements. The target cells were counted and stained using 10 μM CFSE end concentration. For DMSO treated target cells, an effector:target (E:T) ratio of 2:1 is chosen, corresponding to a cell density of 5×10^5/ml. The proliferative effect on target cells caused by Idelalisib treatment was included by adjusting the E:T ratio in inhibitor treated cells. The NK cells are counted and adjusted to 1×10^6/ml. The target cell killing assays were performed as follows: using 96 well plates, 100 μl of target cell suspension was added per well, followed by 100 μl cell suspension of NK cells to each well resulting in an E:T ratio of 2:1. The antibodies were diluted in a range of 10-0.00001 nM (corresponding to 1.5-0.0000015 μg/ml) in medium. Cells were centrifuged and target:effector cell-pellets were re-suspended in 100 μl antibody-containing medium or the according control solution. The assay was incubated for 4 h in CO2-incubator at 37° C. After 10 min incubation on ice, 50 μl DAPI solution was added to each well (final concentration 1 μg/ml) and incubated on ice for 10 min. The cell killing measurements were performed with FACS-Verse. Dead target cells were DAPI positive.
In total, six experiments were performed in order to determine the mediation of ADCC on MEC-1 cells by the combination of MOR00208 and Idelalisib. […] The autoreactivity of the NK cells prevented a proper analysis in those two experiments.
The % dead cells (raw data) from Tables 1-16 was analysed in the following way:
[formula] [formula] [formula] where A is the treatment with MOR00208 alone; B is the treatment with Idelalisib alone; C is response to the control DMSO+RefMab33; AB is the combination of treatments A and B.
In order to confirm the results of synergy as calculated using Clarke et al. above, the Combination Index (CI) method was applied to the % dead cells (raw data) of Tables 1-16. For CI calculations, we used 0.3, 1, 3 and 10 μM Idelalisib and three MOR208 concentrations (1.5, 0.015 and 0.0015 μg/ml).

[1] = Experiment 1, Idelalisib 0.3 μM, MOR00208 0.01 nM (0.0015 μg/ml)
[2] = Experiment 1, Idelalisib 0.3 μM, MOR00208 0.1 nM (0.015 μg/ml)
[3] = Experiment 1, Idelalisib 0.3 μM, MOR00208 10 nM (1.5 μg/ml)
[4] = Experiment 1, Idelalisib 1 μM, MOR00208 0.01 nM (0.0015 μg/ml)
[5] = Experiment 1, Idelalisib 1 μM, MOR00208 0.1 nM (0.015 μg/ml)
[6] = Experiment 1, Idelalisib 1 μM, MOR00208 10 nM (1.5 μg/ml)
[7] = Experiment 1, Idelalisib 3 μM, MOR00208 0.01 nM (0.0015 μg/ml)
[8] = Experiment 1, Idelalisib 3 μM, MOR00208 0.1 nM (0.015 μg/ml)
[9] = Experiment 1, Idelalisib 3 μM, MOR00208 10 nM (1.5 μg/ml)
[10] = Experiment 1, Idelalisib 10 μM, MOR00208 0.01 nM (0.0015 μg/ml)
[11] = Experiment 1, Idelalisib 10 μM, MOR00208 0.1 nM (0.015 μg/ml)
[12] = Experiment 1, Idelalisib 10 μM, MOR00208 10 nM (1.5 μg/ml)
[13] = Experiment 2, Idelalisib 0.3 μM, MOR00208 0.01 nM (0.0015 μg/ml)
[14] = Experiment 2, Idelalisib 0.3 μM, MOR00208 0.1 nM (0.015 μg/ml)
[15] = Experiment 2, Idelalisib 0.3 μM, MOR00208 10 nM (1.5 μg/ml)
[16] = Experiment 2, Idelalisib 1 μM, MOR00208 0.01 nM (0.0015 μg/ml)
[17] = Experiment 2, Idelalisib 1 μM, MOR00208 01 nM (0.015 μg/ml)
[18] = Experiment 2, Idelalisib 1 μM, MOR00208 10 nM (1.5 μg/ml)
[19] = Experiment 2, Idelalisib 3 μM, MOR00208 0.01 nM (0.0015 μg/ml)
[20] = Experiment 2, Idelalisib 3 μM, MOR00208 0.1 nM (0.015 μg/ml)
[21] = Experiment 2, Idelalisib 3 μM, MOR00208 10 nM (1.5 μg/ml)
[22] = Experiment 2, Idelalisib 10 μM, MOR00208 0.01 nM (0.0015 μg/ml)
[23] = Experiment 2, Idelalisib 10 μM, MOR00208 0.1 nM (0.015 μg/ml)
[24] = Experiment 2, Idelalisib 10 μM, MOR00208 10 nM (1.5 μg/ml)
[25] = Experiment 3, Idelalisib 0.3 μM, MOR00208 0.01 nM (0.0015 μg/ml)
[26] = Experiment 3, Idelalisib 0.3 μM, MOR00208 0.1 nM (0.015 μg/ml)
[27] = Experiment 3, Idelalisib 0.3 μM, MOR00208 10 nM (1.5 μg/ml)
[28] = Experiment 3, Idelalisib 1 μM, MOR00208 0.01 nM (0.0015 μg/ml)
[29] = Experiment 3, Idelalisib 1 μM, MOR00208 0.1 nM (0.015 μg/ml)
[30] = Experiment 3, Idelalisib 1 μM, MOR00208 10 nM (1.5 μg/ml)
[31] = Experiment 3, Idelalisib 3 μM, MOR00208 0.01 nM (0.0015 μg/ml)
[32] = Experiment 3, Idelalisib 3 μM, MOR00208 0.1 nM (0.015 μg/ml)
[33] = Experiment 3, Idelalisib 3 μM, MOR00208 10 nM (1.5 μg/ml)
[34] = Experiment 3, Idelalisib 10 μM, MOR00208 0.01 nM (0.0015 μg/ml)
[35] = Experiment 3, Idelalisib 10 μM, MOR00208 0.1 nM (0.015 μg/ml)
[36] = Experiment 3, Idelalisib 10 μM, MOR00208 10 nM (1.5 μg/ml)
[37] = Experiment 4, Idelalisib 0.3 μM, MOR00208 0.01 nM (0.0015 μg/ml)
[38] = Experiment 4, Idelalisib 0.3 μM, MOR00208 0.1 nM (0.015 μg/ml)
[39] = Experiment 4, Idelalisib 0.3 μM, MOR00208 10 nM (1.5 μg/ml)
[40] = Experiment 4, Idelalisib 1 μM, MOR00208 0.01 nM (0.0015 μg/ml)
[41] = Experiment 4, Idelalisib 1 μM, MOR00208 0.1 nM (0.015 μg/ml)
[42] = Experiment 4, Idelalisib 1 μM, MOR00208 10 nM (1.5 μg/ml)
[43] = Experiment 4, Idelalisib 3 μM, MOR00208 0.01 nM (0.0015 μg/ml)
[44] = Experiment 4, Idelalisib 3 μM, MOR00208 0.1 nM (0.015 μg/ml)
[45] = Experiment 4, Idelalisib 3 μM, MOR00208 10 nM (1.5 μg/ml)
[46] = Experiment 4, Idelalisib 10 μM, MOR00208 0.01 nM (0.0015 μg/ml)
[47] = Experiment 4, Idelalisib 10 μM, MOR00208 0.1 nM (0.015 μg/ml)
[48] = Experiment 4, Idelalisib 10 μM, MOR00208 10 nM (1.5 μg/ml)

CC[C@H](Nc1ncnc2nc[nH]c12)c1nc2cccc(F)c2c(=O)n1-c1ccccc1 [Idelalisib]
effect of the Idelalisib group greater than the control (Experiment 1, Tables 1-3): ~4% | % dead cells [1]: 6.8% | % dead cells [2]: 6.8% | % dead cells [3]: 6.8% | % dead cells [4]: 10.8% | % dead cells [5]: 10.8% | % dead cells [6]: 10.8% | % dead cells [7]: 11.3% | % dead cells [8]: 11.3% | % dead cells [9]: 11.3% | % dead cells [10]: 11.6% | % dead cells [11]: 11.6% | % dead cells [12]: 11.6% | % dead cells [13]: 20.8% | % dead cells [14]: 20.8% | % dead cells [15]: 20.8% | % dead cells [16]: 20.7% | % dead cells [17]: 20.7% | % dead cells [18]: 20.7% | % dead cells [19]: 14.6% | % dead cells [20]: 14.6% | % dead cells [21]: 14.6% | % dead cells [22]: 14.7% | % dead cells [23]: 14.7% | % dead cells [24]: 14.7% | % dead cells [25]: 17.3% | % dead cells [26]: 17.3% | % dead cells [27]: 17.3% | % dead cells [28]: 18.7% | % dead cells [29]: 18.7% | % dead cells [30]: 18.7% | % dead cells [31]: 14.0% | % dead cells [32]: 14.0% | % dead cells [33]: 14.0% | % dead cells [34]: 11.5% | % dead cells [35]: 11.5% | % dead cells [36]: 11.5% | % dead cells [37]: 15.5% | % dead cells [38]: 15.5% | % dead cells [39]: 15.5% | % dead cells [40]: 15.9% | % dead cells [41]: 15.9% | % dead cells [42]: 15.9% | % dead cells [43]: 13.8% | % dead cells [44]: 13.8% | % dead cells [45]: 13.8% | % dead cells [46]: 12.1% | % dead cells [47]: 12.1% | % dead cells [48]: 12.1% | cytotoxic effects against MEC-1 cells (Idelalisib alone): little to no cyctotoxic effects; also recorded: low cytotoxity activity

B1: MOR00208: anti-CD19 antibody; variable domains in FIG. 1, Fc regions in FIG. 2 (antibody)
heavy: EVQLVESGGGLVKPGGSLKLSCAASGYTFTSYVMHWVRQAPGKGLEWIGYINPYNDGTKYNEKFQGRVTISSDKSISTAYMELSSLRSEDTAMYYCARGTYYYGTRVFDYWGQGTLVTVSSASTKGPSVFPLAPSSKSTSGGTAALGCLVKDYFPEPVTVSWNSGALTSGVHTFPAVLQSSGLYSLSSVVTVPSSSLGTQTYICNVNHKPSNTKVDKKVEPKSCDKTHTCPPCPAPELLGGPDVFLFPPKPKDTLMISRTPEVTCVVVDVSHEDPEVQFNWYVDGVEVHNAKTKPREEQFNSTFRVVSVLTVVHQDWLNGKEYKCKVSNKALPAPEEKTISKTKGQPREPQVYTLPPSREEMTKNQVSLTCLVKGFYPSDIAVEWESNGQPENNYKTTPPMLDSDGSFFLYSKLTVDKSRWQQGNVFSCSVMHEALHNHYTQKSLSLSPGK
light: DIVMTQSPATLSLSPGERATLSCRSSKSLQNVNGNTYLYWFQQKPGQSPQLLIYRMSNLNSGVPDRFSGSGSGTEFTLTISSLEPEDFAVYYCMQHLEYPITFGAGTKLEIKRTVAAPSVFIFPPSDEQLKSGTASVVCLLNNFYPREAKVQWKVDNALQSGNSQESVTEQDSKDSTYSLSSTLTLSKADYEKHKVYACEVTHQGLSSPVTKSFNRGEC
% dead cells [1]: 40.3% | % dead cells [2]: 63.1% | % dead cells [3]: 62.9% | % dead cells [4]: 40.3% | % dead cells [5]: 63.1% | % dead cells [6]: 62.9% | % dead cells [7]: 40.3% | % dead cells [8]: 63.1% | % dead cells [9]: 62.9% | % dead cells [10]: 40.3% | % dead cells [11]: 63.1% | % dead cells [12]: 62.9% | % dead cells [13]: 52.9% | % dead cells [14]: 78.9% | % dead cells [15]: 85.6% | % dead cells [16]: 52.9% | % dead cells [17]: 78.9% | % dead cells [18]: 85.6% | % dead cells [19]: 52.9% | % dead cells [20]: 78.9% | % dead cells [21]: 85.6% | % dead cells [22]: 52.9% | % dead cells [23]: 78.9% | % dead cells [24]: 85.6% | % dead cells [25]: 43.5% | % dead cells [26]: 59.5% | % dead cells [27]: 62.0% | % dead cells [28]: 43.5% | % dead cells [29]: 59.5% | % dead cells [30]: 62.0% | % dead cells [31]: 43.5% | % dead cells [32]: 59.5% | % dead cells [33]: 62.0% | % dead cells [34]: 43.5% | % dead cells [35]: 59.5% | % dead cells [36]: 62.0% | % dead cells [37]: 56.3% | % dead cells [38]: 73.3% | % dead cells [39]: 74.6% | % dead cells [40]: 56.3% | % dead cells [41]: 73.3% | % dead cells [42]: 74.6% | % dead cells [43]: 56.3% | % dead cells [44]: 73.3% | % dead cells [45]: 74.6% | % dead cells [46]: 56.3% | % dead cells [47]: 73.3% | % dead cells [48]: 74.6%
